How the values were obtained:
soybean = assay: Test B pre/postemergence soybean; assay type: in vivo, Glycine max
Summary of the method: (§1)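 Herbicidal effect was estimated by eye on a ten-point control scale after plants spent twelve to sixteen days in a greenhouse following soil or foliar treatment. Foliar sprays targeted plants at one to four leaves; all doses were formulated in a non-phytotoxic solvent with surfactant.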

giant foxtail = assay: Test B pre/postemergence giant foxtail; assay type: in vivo, Setaria faberii
Summary of the method: as §1

cocklebur = assay: Test B pre/postemergence cocklebur; assay type: in vivo, Xanthium strumarium
Summary of the method: as §1

rape = assay: Test B pre/postemergence rape; assay type: in vivo, Brassica napus
Summary of the method: as §1

surinam grass = assay: Test B pre/postemergence surinam grass; assay type: in vivo, Brachiaria decumbens
Summary of the method: as §1

sugar beet = assay: Test B pre/postemergence sugar beet; assay type: in vivo, Beta vulgaris
Summary of the method: as §1

wild oat = assay: Test B pre/postemergence wild oat; assay type: in vivo, Avena fatua
Summary of the method: as §1

morningglory = assay: Test B pre/postemergence morningglory; assay type: in vivo, Ipomoea hederacea
Summary of the method: as §1

velvetleaf = assay: Test B pre/postemergence velvetleaf; assay type: in vivo, Abutilon theophrasti
Summary of the method: as §1

blackgrass = assay: Test B pre/postemergence blackgrass; assay type: in vivo, Alopecurus myosuroides
Summary of the method: as §1

bedstraw = assay: Test B pre/postemergence bedstraw; assay type: in vivo, Galium aparine
Summary of the method: as §1

pigweed = assay: Test B pre/postemergence pigweed; assay type: in vivo, Amaranthus retroflexus
Summary of the method: as §1

wheat = assay: Test B pre/postemergence wheat; assay type: in vivo, Triticum aestivum
Summary of the method: as §1

purple nutsedge = assay: Test B pre/postemergence purple nutsedge; assay type: in vivo, Cyperus rotundus
Summary of the method: as §1

crabgrass = assay: Test B pre/postemergence crabgrass; assay type: in vivo, Digitaria sanguinalis
Summary of the method: as §1

corn = assay: Test B pre/postemergence corn; assay type: in vivo, Zea mays
Summary of the method: as §1

[1] = Postemergence, Rate 62 g/ha, scale of 0 to 10, 0 is no effect, 10 is complete control
[2] = Postemergence, Rate 125 g/ha, scale 0 to 10, 0 is no effect, 10 is complete control
[3] = Postemergence, Rate 500 g/ha, scale 0 to 10, 0 is no effect, 10 is complete control
[4] = Preemergence, Rate 62 g/ha, scale of 0 to 10 where 0 is no effect and 10 is complete control
[5] = Preemergence, Rate 125 g/ha, scale 0 to 10, 0 is no effect, 10 is complete control
[6] = Preemergence, Rate 500 g/ha, scale of 0 to 10 where 0 is no effect and 10 is complete control
[7] = Postemergence, Rate 250 g/ha, scale 0 to 10
[8] = Preemergence, Rate 250 g/ha, scale 0 to 10, 0 is no effect, 10 is complete control
[9] = Preemergence, Rate 500 g/ha, scale 0 to 10, 0 is no effect, 10 is complete control

CC(C)N(C(=O)n1oc(=O)n(CC2OCCO2)c1=O)c1ccc(F)cc1F [Compound 501]
10: Giant foxtail plant response rating (giant foxtail; [5]) | Giant foxtail plant response rating (giant foxtail; [6]) | Rape plant response rating (rape; [6]) | B. signalgrass plant response rating (surinam grass; [9]) | Wild oats plant response rating (wild oat; [6]) | Bedstraw plant response rating (bedstraw; [8]) | Redroot pigweed plant response rating (pigweed; [5]) | Redroot pigweed plant response rating (pigweed; [6])
8: Soybean plant response rating (soybean; [6]) | Giant foxtail plant response rating (giant foxtail; [1]) | Giant foxtail plant response rating (giant foxtail; [2]) | Plant response rating, Giant foxtail (giant foxtail; [3]) | Plant response rating, B. signalgrass (surinam grass; [4]) | Plant response rating, Sugarbeets (sugar beet; [3]) | Sugarbeets plant response rating (sugar beet; [6]) | Wheat plant response rating (wheat; [6]) | Crabgrass plant response rating (crabgrass; [2]) | Plant response rating, Crabgrass (crabgrass; [3]) | Plant response rating, Crabgrass (crabgrass; [4])
0: Plant response rating, Soybean (soybean; [4]) | Soybean plant response rating (soybean; [5]) | Cocklebur plant response rating (cocklebur; [1]) | Cocklebur plant response rating (cocklebur; [2]) | Plant response rating, Cocklebur (cocklebur; [4]) | Cocklebur plant response rating (cocklebur; [5]) | Cocklebur plant response rating (cocklebur; [8]) | Plant response rating, Rape (rape; [4]) | Rape plant response rating (rape; [5]) | Plant response rating, Sugarbeets (sugar beet; [4]) | Wild oats plant response rating (wild oat; [1]) | Wild oats plant response rating (wild oat; [2]) | Plant response rating, Wild oats (wild oat; [4]) | Morningglory plant response rating (morningglory; [1]) | Plant response rating, Morningglory (morningglory; [4]) | Morningglory plant response rating (morningglory; [5]) | Velvetleaf plant response rating (velvetleaf; [1]) | Velvetleaf plant response rating (velvetleaf; [2]) | Plant response rating, Velvetleaf (velvetleaf; [4]) | Redroot pigweed plant response rating (pigweed; [1]) | Nutsedge plant response rating (purple nutsedge; [2]) | Plant response rating, Nutsedge (purple nutsedge; [4]) | Corn plant response rating (corn; [1]) | Corn plant response rating (corn; [2])
6: B. signalgrass plant response rating (surinam grass; [2]) | Blackgrass plant response rating (blackgrass; [2]) | Blackgrass plant response rating (blackgrass; [7]) | Plant response rating, Corn (corn; [3])
4: Soybean plant response rating (soybean; [1]) | Plant response rating, Morningglory (morningglory; [3]) | Redroot pigweed plant response rating (pigweed; [2]) | Plant response rating, Wheat (wheat; [4]) | Wheat plant response rating (wheat; [5]) | Corn plant response rating (corn; [7])
9: Plant response rating, Giant foxtail (giant foxtail; [4]) | B. signalgrass plant response rating (surinam grass; [5]) | B. signalgrass plant response rating (surinam grass; [8]) | Blackgrass plant response rating (blackgrass; [8]) | Blackgrass plant response rating (blackgrass; [6]) | Plant response rating, Bedstraw (bedstraw; [3]) | Bedstraw plant response rating (bedstraw; [5]) | Bedstraw plant response rating (bedstraw; [9]) | Plant response rating, Redroot pigweed (pigweed; [4]) | Nutsedge plant response rating (purple nutsedge; [6]) | Crabgrass plant response rating (crabgrass; [7]) | Crabgrass plant response rating (crabgrass; [5]) | Crabgrass plant response rating (crabgrass; [6])
5: Plant response rating, Soybean (soybean; [3]) | Plant response rating, Cocklebur (cocklebur; [3]) | Sugarbeets plant response rating (sugar beet; [1]) | Sugarbeets plant response rating (sugar beet; [2]) | Morningglory plant response rating (morningglory; [6]) | Velvetleaf plant response rating (velvetleaf; [6]) | Plant response rating, Blackgrass (blackgrass; [4]) | Blackgrass plant response rating (blackgrass; [5]) | Plant response rating, Redroot pigweed (pigweed; [3])
3: Soybean plant response rating (soybean; [2]) | Cocklebur plant response rating (cocklebur; [6]) | Sugarbeets plant response rating (sugar beet; [5]) | Plant response rating, Wild oats (wild oat; [3]) | Morningglory plant response rating (morningglory; [2]) | Plant response rating, Velvetleaf (velvetleaf; [3]) | Blackgrass plant response rating (blackgrass; [1]) | Plant response rating, Wheat (wheat; [3]) | Nutsedge plant response rating (purple nutsedge; [5])
7: Plant response rating, Rape (rape; [3]) | B. signalgrass plant response rating (surinam grass; Postemergence, Rate 250 g/ha, scale 0 to 10, 0 no effect, 10 complete control) | Plant response rating, B. signalgrass (surinam grass; [3]) | Wild oats plant response rating (wild oat; [5]) | Plant response rating, Blackgrass (blackgrass; [3]) | Crabgrass plant response rating (crabgrass; [1])
2: Cocklebur plant response rating (cocklebur; [7]) | Rape plant response rating (rape; [1]) | Rape plant response rating (rape; [2]) | B. signalgrass plant response rating (surinam grass; [1]) | Velvetleaf plant response rating (velvetleaf; [5]) | Plant response rating, Bedstraw (bedstraw; [4]) | Wheat plant response rating (wheat; [1]) | Plant response rating, Nutsedge (purple nutsedge; [3]) | Corn plant response rating (corn; [5])

Reference: patent US6737383B1, “Herbicidal oxadiazolidines” (priority 1999, dated 2004)
